In PubChem BioAssay AID248 (DTP/NCI, 2004):
“And” between values parts separate entries of the source, which are not always exact repeats. Identical values can stand only once. Toxic doses and inconclusive results are not listed. No stated cut-off is given here; in the data, active means T/C of 150% or more; inactive means T/C below 125%.

System: L1210 leukemia ip in BDF1 mice, survival T/C
Test: NCI In Vivo Anticancer Drug Screen. Data for tumor model L1210 Leukemia (intraperitoneal) in B6D2F1 (BDF1) mice
Conditions: endpoint: mean survival time, higher = longer survival
Procedure, shortened: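 Survival endpoint. Drug-treated group vs vehicle group, expressed as T divided by C. Tumor passaged by transplantation.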

Measured: T/C

COC(=O)c1cccc(C)n1
inactive: dose: 100.0 mg/kg/injection, schedule: Q01DX001 (ip), vehicle: saline 94 % of control | dose: 100.0 mg/kg/injection, schedule: Q04DX003 (ip), vehicle: saline 104 % of control | dose: 200.0 mg/kg/injection, schedule: Q01DX001 (ip), vehicle: saline 100 % of control | dose: 200.0 mg/kg/injection, schedule: Q04DX003 (ip), vehicle: saline 97 % of control | dose: 400.0 mg/kg/injection, schedule: Q01DX001 (ip), vehicle: saline 96 % of control | dose: 400.0 mg/kg/injection, schedule: Q04DX003 (ip), vehicle: saline 92 % of control

O=C(Nc1ccccc1F)Oc1ccc(F)cc1
inactive: dose: 100.0 mg/kg/injection, schedule: Q01DX001 (ip), vehicle: Klucel (hydroxypropylcellulose) (HPC) 97 % of control | dose: 100.0 mg/kg/injection, schedule: Q01DX009 (ip), vehicle: Klucel (hydroxypropylcellulose) (HPC) 102 % of control and 91 % of control | dose: 100.0 mg/kg/injection, schedule: Q04DX002 (ip), vehicle: Klucel (hydroxypropylcellulose) (HPC) 101 % of control and 89 % of control | dose: 200.0 mg/kg/injection, schedule: Q01DX001 (ip), vehicle: Klucel (hydroxypropylcellulose) (HPC) 97 % of control | dose: 200.0 mg/kg/injection, schedule: Q01DX009 (ip), vehicle: Klucel (hydroxypropylcellulose) (HPC) 98 % of control and 109 % of control | dose: 200.0 mg/kg/injection, schedule: Q04DX002 (ip), vehicle: Klucel (hydroxypropylcellulose) (HPC) 96 % of control and 98 % of control | dose: 400.0 mg/kg/injection, schedule: Q01DX001 (ip), vehicle: Klucel (hydroxypropylcellulose) (HPC) 96 % of control | dose: 400.0 mg/kg/injection, schedule: Q01DX009 (ip), vehicle: Klucel (hydroxypropylcellulose) (HPC) 98 % of control and 107 % of control | dose: 400.0 mg/kg/injection, schedule: Q04DX002 (ip), vehicle: Klucel (hydroxypropylcellulose) (HPC) 101 % of control and 104 % of control

Cc1ccc(Nc2ccc(O)c3c2C(=O)c2ccccc2C3=O)c(Br)c1
inactive: dose: 75.0 mg/kg/injection, schedule: Q01DX001 (ip), vehicle: steriod suspending solution 96 % of control | dose: 150.0 mg/kg/injection, schedule: Q01DX001 (ip), vehicle: steriod suspending solution 100 % of control | dose: 300.0 mg/kg/injection, schedule: Q01DX001 (ip), vehicle: steriod suspending solution 93 % of control

Nc1nc2nc(CCc3ccccc3)cnc2c(=O)[nH]1
inactive: dose: 25.0 mg/kg/injection, schedule: Q01DX001 (ip), vehicle: saline with Tween-80 96 % of control | dose: 50.0 mg/kg/injection, schedule: Q01DX001 (ip), vehicle: saline with Tween-80 93 % of control | dose: 100.0 mg/kg/injection, schedule: Q01DX001 (ip), vehicle: saline with Tween-80 90 % of control

CC[CH2][Sn]([CH2]CC)[CH2]CC.CC[CH2][Sn]([CH2]CC)[CH2]CC
inactive: dose: 12.5 mg/kg/injection, schedule: Q01DX009 (sc), vehicle: olive oil, sesame oil, peanut oil 97 % of control | dose: 25.0 mg/kg/injection, schedule: Q01DX009 (sc), vehicle: olive oil, sesame oil, peanut oil 100 % of control | dose: 25.0 mg/kg/injection, schedule: Q04DX002 (sc), vehicle: olive oil, sesame oil, peanut oil 102 % of control | dose: 50.0 mg/kg/injection, schedule: Q04DX002 (sc), vehicle: olive oil, sesame oil, peanut oil 102 % of control | dose: 100.0 mg/kg/injection, schedule: Q04DX002 (sc), vehicle: olive oil, sesame oil, peanut oil 115 % of control

CS(=O)(=O)OCCN(CCOS(C)(=O)=O)c1ccccc1
inactive: dose: 100.0 mg/kg/injection, schedule: Q01DX001 (ip), vehicle: other 100 % of control

CC(=O)c1c(O)c(C)c(O)c2c1OC1=CC(=O)C(C(C)=O)C(=O)C12C (configuration not stated)
inactive: dose: 5.0 mg/kg/injection, schedule: Q01DX009 (ip), vehicle: gum acacia 103 % of control | dose: 10.0 mg/kg/injection, schedule: Q01DX009 (ip), vehicle: gum acacia 101 % of control | dose: 20.0 mg/kg/injection, schedule: Q01DX009 (ip), vehicle: gum acacia 103 % of control | dose: 40.0 mg/kg/injection, schedule: Q01DX009 (ip), vehicle: gum acacia 94 % of control | dose: 80.0 mg/kg/injection, schedule: Q01DX009 (ip), vehicle: gum acacia 86 % of control
